The values that follow are results of earlier work, collected in patent US10022338B2, “Honey bee mite disruptive compounds and methods of application” (SIMON FRASER UNIVERSITY, priority 2014, dated 2018).

The series relates to olfactory sensory organ on the Varroa foreleg. The conditions noted are these: separate study.

As for `CCN(CC)C(=O)c1cccc(C)c1` [DEET, 3-methyl-N,N-diethylbenzamide], the “short-term inhibition of Varroa's response to bee headspace” value is reported as “not significant”. Also, under “high dose”, the “long-term inhibition of Varroa's response to bee headspace” value is “long-term inhibit”.
